According to patent US9469878B2, “Methods of treating cancer comprising targeting NQO1” (The Board of Regents of the University of Texas System, priority 2010, dated 2016):

How the values were obtained:
[1] = tested on: wild-type *1/*1 non-small cell lung cancer (NSCLC) cell lines; assay: LD50 responses of NSCLC cell lines treated with β-Lap; format: cell-based, human; conditions: all of the wild-type *1/*1 NSCLC cells, 2 h treatment, 7 days later
Procedure: FIG. 16 depicts NQO1 levels predict response to NQO1 bioactivatable therapies. In (a) LD50 responses of non-small cell lung cancer (NSCLC) cell lines treated with β-Lap for 2 h and harvester 7 days later. LD50 responses were plotted as a function of NQO1 enzymatic levels. The notations, *1/*1 and *2/*2 represent the NQO1 status of each cell line as homozygous wild type (*1/*1) or homozygous polymorphic (*2/*2) genotypes. Note that all heterozygote cells containing one wild-type allele (*1) are wild-type, phenotypically, for NQO1 expression, such that only homozygous *2/*2 or 3/3 are considered non-responsive to NQO1 bioactivatable drugs. Note the high resistance of H596 and H2862 cell lines to β-lapachone compared to all of the wild-type *1/*1 cells with LD50 values less than 5 μM. Note also that *3/*3 SNPs in NQO1 are far more rare than *2/*2 single point mutations in NQO1. In (b), Kaplan-Meier survival curve of mice bearing orthotopic lung tumors implanted with *1/*1 A549 cells. Mice were treated intravenously (5 doses every other day) with β-lap-HPβ-CD or vehicle alone (HPβ-CD). Similar studies with *2/*2 or *3/*3 tumors were performed and these tumors were non-responsive to β-lapachone or other NQO1 bioactivatable drug therapies.

H2185 = tested on: H2185; parameters: LD50 β-Lap + CAT: unit not given beside the values
Procedure: (§1) Cells were cultured and treated as described above. […] Experiments were repeated at least three times, and data expressed as relative survival (treated/control×100%) means±SEM. […] The multi-target model was used to describe the shape of relative survival curves. In this model, a final slope (D0) resulting from multiple-event killing and quasithreshold (Dq) doses were used to represent the size or width of the shoulder of the curve. The extrapolation number (n) is also a measure of the width of the shoulder. The three parameters, n, Do, and Dq were related by the expression: loge n=Dq/Do.
(§2) Cells were treated with β-lap with or without dicoumarol for 2 h. […] Data were expressed as relative survival (treated/control×100%). Experiments were repeated at least three times, and data expressed as relative survival means±SEM. […] Human mammary epithelial cells were plated in 48 well dishes in growth media containing a 50:50 mixture of MGEM/DME:F12 medium supplemented with insulin, human epidermal growth factor and hydrocortisone.

ZR751 = tested on: ZR751; parameters: LD50 β-Lap + CAT: unit not given beside the values
Procedure: as §1, §2

HTB122 = tested on: HTB122; parameters: LD50 β-Lap + CAT: unit not given beside the values
Procedure: as §1, §2

HTB24 = tested on: HTB24; parameters: LD50 β-Lap + CAT: unit not given beside the values
Procedure: as §1, §2

MCF-7 = tested on: MCF-7; parameters: LD50 β-Lap + CAT: unit not given beside the values
Procedure: as §1, §2

HCC1937 = tested on: HCC1937; parameters: LD50 β-Lap + CAT: unit not given beside the values
Procedure: as §1, §2

NQO1 = NQO1 (Homo sapiens, UniProt P15559); assay: NQO1 enzyme assays using β-lapachone or the standard menadione substrates; format: biochemical; parameters: S9 Supernatants were prepared from cells in mid-log to late log phase growth; endogenous in cells; host or cells: cancer cell lines, mostly from a non-small cell lung cancer panel; S9 supernatants; conditions: β-lapachone as substrate, H1993 *1/*1
Procedure: S9 Supernatants were prepared from cells in mid-log to late log phase growth. […] The cell suspensions were sonicated on ice four times, using 10-s pulses, and then centrifuged at 14,000×g for 20 min. The S9 supernatants were aliquoted into microcentrifuge tubes and stored at −80° C. until used. A 1× protease inhibitor cocktail was added to prevent enzyme activity degradation. […] Menadione was used as the electron acceptor. NADH was used as the electron donor.
NQO1 activity was measured using NADH (200 μM) as the immediate electron donor and menadione (10 μM) as the intermediate electron acceptor. […] Biochem. Biophys. […] NADH: cytochrome b5 reductase was measured using NADH (200 μM) as the electron donor, and […] was measured using NADPH (200 μM) as electron donor (45) in a Beckman DU 640 spectrophotometer (Beckman Coulter, Fullerton, Calif.). Reactions were carried out at 37° C. and were initiated by the addition of S9 supernatants. Varying amounts of supernatants, from 10 to 40 μL, were used to ensure linearity of rates with protein concentration. […] Results shown are the average enzyme activity for three separate cell extractions±S.D. or both values from duplicate experiments.
Cell lines, mostly from a 5-panel nonsmall cell lung cancer panel from the UT Southwestern SPORE, were assessed for NQO1 polymorphism status and then monitored for NQO1 enzyme assays using β-lapachone or the standard menadione substrates. […] NQO1*2/*2 and *3/*3 polymorphisms were detected from NQO1 *1/*1 wild-type sequences by PCR-RFLP. Genomic DNA was extracted from the cells using Qiagen spin columns. Using previously described oligonucleotide primers, PCR products underwent gel electrophoresis. Final genotyping was determined based on the size and pattern of separated bands diagnostic for *1/*1 (wild-type), or polymorphic *2/*2 or *3/*3 NQO1 polymorphisms.

NQO1+ human cancer cells = conditions: cited from earlier work
[2] = tested on: NQO1-deficient LNCaP cells; assay: Relative survival assay; format: cell-based, human
Procedure: Relative DNA cell survival assays were assessed after various treatments. […] Cells were then mock-treated or treated with various doses of β-lap (for 2 h) in the presence or absence of dicoumoral as indicated. Drug-free medium was then added and cells allowed to grow for 5-7 days until control cells reached ˜100% confluence. […] Results were reported as means±SE from at least three independent experiments.

Chain of NQO1 (P15559 whole entry): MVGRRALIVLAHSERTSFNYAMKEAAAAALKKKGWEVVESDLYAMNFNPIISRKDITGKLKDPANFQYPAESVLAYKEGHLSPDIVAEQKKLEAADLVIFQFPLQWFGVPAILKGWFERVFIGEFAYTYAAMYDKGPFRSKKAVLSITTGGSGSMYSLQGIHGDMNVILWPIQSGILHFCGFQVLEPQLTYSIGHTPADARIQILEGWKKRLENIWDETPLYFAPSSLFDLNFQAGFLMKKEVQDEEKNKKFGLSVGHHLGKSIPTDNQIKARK

Compound: CC1(C)CCC2=C(O1)c1ccccc1C(=O)C2=O [β-Lap, 3,4-dihydro-2,2-dimethyl-2H-naphtho[1,2-b]pyran-5,6-dione]
- LD50 [1]: less than 5 μM
- LD50 β-Lap + CAT (H2185): 2.6
- LD50 p-Lap + DIC (H2185; human): 6.4
- LD50 β-Lap (H2185; human): 1.3
- LD50 β-Lap + CAT (ZR751): 3.2
- LD50 p-Lap + DIC (ZR751; human): 6.8
- LD50 β-Lap (ZR751; human): 1.4
- LD50 β-Lap + CAT (HTB122): 2.8
- LD50 p-Lap + DIC (HTB122; human): 5.5
- LD50 β-Lap (HTB122; human): 1.5
- LD50 β-Lap + CAT (HTB24): 3.5
- LD50 p-Lap + DIC (HTB24; human): 6.2
- LD50 β-Lap (HTB24; human): 1.5
- LD50 β-Lap + CAT (MCF-7): 4.8
- LD50 p-Lap + DIC (MCF-7; human): 9.0
- LD50 β-Lap (MCF-7; human): 1.7
- LD50 β-Lap + CAT (HCC1937): 3.4
- LD50 p-Lap + DIC (HCC1937; human): 5.0
- LD50 β-Lap (HCC1937; human): 2.2
- NQO1 activity, β-Lap (NQO1): 1940 ± 12 nmol/min/µg
- Lethality (NQO1+ human cancer cells; 1-2 μM treatments for 2-4 h): not lethal
- Cell death responses (TUNEL staining) (NQO1+ human cancer cells; 2-3 μM for 2-4 h): > 90%
- Response to β-lap [2]: not responsive
